Test [1] has as its system AAR. The following applies: ITC. From the text:
To verify this assumption, we measured the binding affinity of K^+ ions with AAR, using ITC method.
AAR to perform all the experiments. The small organic molecule, such as stearoyl-CoA, can be used in high concentration, which is more favorable for either co-crystallization with AAR(-ADO) or soaking with the AAR(-ADO) crystals. In comparison, stearoyl-ACP is an 80-residue protein with a stearoyl chain linked to the 4’-phosphopanthetheine on a Ser residue, while the crystallization of protein-protein complexes (AAR-ACP) is much difficult than that of protein-ligand
(AAR-stearoyl-CoA) complexes.
ACP protein covalently linked with stearic chain (stearoyl-ACP), according to the […]
Considering the similar chemical structure of the acyl part of acyl-ACP and acyl-CoA, and the time-consuming experimental processes for obtaining the stearoyl-ACP protein and […]
In our originally submitted manuscript, we supposed that Mg2+ ion binds with AAR near its active site, but we […]
performed ITC experiment to confirm whether Mg2+ ions bind with AAR.
4. The authors assumed that Mg2+ and K+ ions bind to AAR in the crystals. However,
Therefore, it is required to confirm that Mg2+ and/or K+ really bind to AAR using […]
We have now performed the ITC

In test [2] the test system is AAR. Conditions: cited from earlier work.
For test [3], the target named is T1, AAR-wt (Synechococcus elongatus, UniProt Q54765).
T1 construct: gene Synpcc7942_1594; full length (341 residues), C-terminal His-tag removed by TEV protease; expressed in E. coli BL21(DE3) with chaperone plasmid pG-KJE8
The test can be described thus: Isothermal titration calorimetry, stearoyl-CoA (650 uM) titrated into 30 uM AAR in 25 mM Tris-HCl pH 7.6, 1 mM TCEP, without KCl. Conditions: read-out: KD value (µM), AAR (−K+). It is filed as binding.
Protocol: The binding affinity of AAR with ADO or stearoyl-CoA was measured by isotheral titration calorimetry (ITC) using a MicroCal Auto-ITC200 microcalorimeter (GE Healthcare Bio-sciences, Pittsburgh, PA). […] Wild type or mutants of ADO (or AAR) were placed into the sample cell (200 µL working volume) at a final concentration of 30 µM (60 µM for AAR) and was titrated with successive 2-µL injections of AAR protein with concentration of 500 µM (or ADO protein with concentration of 1 mM). Titrating AAR (500 µM) or ADO (1 mM) into the same buffer was performed as a control to determine the background correction. […] Injection of stearyol-CoA into the reaction buffer was performed as control to determine background correction.

Test [4] has as its target T2, acyl-ACP reductase from Synechococcus elongatus PCC 7942, C294S mutant (Synechococcus elongatus PCC 7942, UniProt Q54765 1-341, C294S).
T2 construct: acyl-ACP reductase (AAR), Synechococcus elongatus PCC 7942, gene Synpcc7942_1594; complete protein of 341 residues; also called AAR C294S; AAR_(stearoyl-CoA); source: E. coli BL21(DE3), purified (same protocol as wild-type AAR); incubated with stearoyl-CoA before ADO was added; not shown: His6, C-terminal, cleaved
T2 sequence (looked up): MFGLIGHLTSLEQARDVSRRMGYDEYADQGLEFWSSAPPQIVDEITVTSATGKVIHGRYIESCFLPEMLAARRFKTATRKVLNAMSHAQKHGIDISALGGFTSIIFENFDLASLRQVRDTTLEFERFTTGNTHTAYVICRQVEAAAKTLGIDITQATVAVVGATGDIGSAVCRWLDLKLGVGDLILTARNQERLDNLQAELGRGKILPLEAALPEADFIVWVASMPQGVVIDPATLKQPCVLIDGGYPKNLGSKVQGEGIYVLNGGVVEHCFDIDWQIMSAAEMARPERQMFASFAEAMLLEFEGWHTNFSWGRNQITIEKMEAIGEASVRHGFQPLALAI
The test can be described thus: crystal structure; AAR incubated with stearoyl-CoA (1:3), then with ADO (1:1), gel filtration; crystals in 0.1 M HEPES pH 7.5, 20% PEG8000; NADPH form by soaking. Conditions: both partners purified.

Read-outs that look alike come from different tables or passages of the source.

Data on three molecules can be found in paper PMC7089970, “Structural insights into catalytic mechanism and product delivery of cyanobacterial acyl-acyl carrier protein reductase” (Nature Communications, 2020).

T1 sequence (Q54765 whole entry): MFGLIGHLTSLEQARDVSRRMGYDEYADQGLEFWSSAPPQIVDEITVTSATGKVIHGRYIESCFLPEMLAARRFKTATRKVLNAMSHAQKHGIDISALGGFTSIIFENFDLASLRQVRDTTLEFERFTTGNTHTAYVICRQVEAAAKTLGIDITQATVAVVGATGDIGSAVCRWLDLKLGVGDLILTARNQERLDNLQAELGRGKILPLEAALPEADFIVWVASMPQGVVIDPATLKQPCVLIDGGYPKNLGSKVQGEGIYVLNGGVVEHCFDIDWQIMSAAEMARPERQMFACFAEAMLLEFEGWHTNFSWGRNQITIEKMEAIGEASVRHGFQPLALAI

Consider `[K+]` [K^+], for which the entries for the “binding of metal ion with AAR (in words)” value in test [1] and in test [1] (listed as K+) were “failed to detect signs of AAR binding K^+ ions” and “do not stably/directly bind AAR”, respectively. In addition, the “stimulation of AAR activity by monovalent metal ions” value in test [2] was 10–20 fold.

With `CCCCCCCCCCCCCCCCCC(=O)SCCNC(=O)CCNC(=O)[C@H](O)C(C)(C)COP(=O)(O)OP(=O)(O)OC[C@H]1O[C@@H](n2cnc3c(N)ncnc32)[C@H](O)[C@@H]1OP(=O)(O)O` [stearoyl-CoA, stearoyl-coenzyme A], in test [3], the dissociation constant (Kd) amounted to 2.3 ± 0.38 µM.

B1: aldehyde-deformylating oxygenase from Synechococcus elongatus PCC 7942, wild type, His-tag removed (enzyme, UniProt Q54764 1-231, looked up)
chain: MPQLEASLELDFQSESYKDAYSRINAIVIEGEQEAFDNYNRLAEMLPDQRDELHKLAKMEQRHMKGFMACGKNLSVTPDMGFAQKFFERLHENFKAAAAEGKVVTCLLIQSLIIECFAIAAYNIYIPVADAFARKITEGVVRDEYLHRNFGEEWLKANFDASKAELEEANRQNLPLVWLMLNEVADDARELGMERESLVEDFMIAYGEALENIGFTTREIMRMSAYGLAAV
notes: aldehyde-deformylating oxygenase (ADO), Synechococcus elongatus PCC 7942, gene Synpcc7942_1593; Constructed and expressed 'similarly as' SeAAR in the modified pET24a (C-terminal TEV site and His6 peptide); ENLYFQ probably stays after cleavage (surmised); also called ADO; SeADO; not shown: His6, C-terminal, cleaved
As to B1, in test [4], the binding result was “binds”.
